For assay [1], the target named is T1, AHR (Homo sapiens, UniProt P35869).
T1 construct: U87 MG glioblastoma cells (ATCC #HTB-14) endogenously expressing AHR; endogenous in cells; host or cells: U87 MG glioblastoma cells (ATCC #HTB-14)
T1 sequence (P35869 11-848): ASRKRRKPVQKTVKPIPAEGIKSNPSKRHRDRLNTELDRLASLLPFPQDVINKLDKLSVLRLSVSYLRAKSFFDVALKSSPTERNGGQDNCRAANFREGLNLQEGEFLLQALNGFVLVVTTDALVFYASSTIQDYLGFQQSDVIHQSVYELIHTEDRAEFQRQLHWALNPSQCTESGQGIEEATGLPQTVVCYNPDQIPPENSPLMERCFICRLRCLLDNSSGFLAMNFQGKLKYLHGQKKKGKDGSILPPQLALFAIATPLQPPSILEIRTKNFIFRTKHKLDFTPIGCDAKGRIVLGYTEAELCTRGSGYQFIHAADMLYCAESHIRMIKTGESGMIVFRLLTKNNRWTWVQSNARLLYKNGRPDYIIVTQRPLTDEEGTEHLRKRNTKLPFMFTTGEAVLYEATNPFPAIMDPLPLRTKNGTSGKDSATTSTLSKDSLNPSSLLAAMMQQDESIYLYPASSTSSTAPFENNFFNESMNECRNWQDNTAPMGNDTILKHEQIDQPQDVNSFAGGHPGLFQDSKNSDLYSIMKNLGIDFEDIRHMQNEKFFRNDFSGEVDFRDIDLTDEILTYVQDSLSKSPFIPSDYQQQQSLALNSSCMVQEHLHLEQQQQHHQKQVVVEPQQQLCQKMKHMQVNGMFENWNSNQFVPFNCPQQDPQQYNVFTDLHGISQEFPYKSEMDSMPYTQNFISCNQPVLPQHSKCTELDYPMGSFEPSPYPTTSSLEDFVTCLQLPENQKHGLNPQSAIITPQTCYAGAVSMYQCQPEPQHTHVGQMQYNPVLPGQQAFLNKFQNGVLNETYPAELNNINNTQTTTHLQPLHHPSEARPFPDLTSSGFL
In words: In vitro assay 1: antagonism in human cell line (AHR transactivation, firefly luciferase reporter, kynurenic acid prestimulated). In kind it is cell-based. Particulars: AHR Antagonism Human IC50 [M]. The gist of the method: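 U87 MG glioblastoma cells with endogenous AHR, stably carrying a DRE-driven firefly luciferase reporter and constitutive Renilla reporter, prestimulated with kynurenic acid before compound addition. Firefly and Renilla read by dual luciferase; Renilla flags toxicity; normalized to controls (150 μM kynurenic acid + 5 μM staurosporine as full inhibition); repeat values averaged or median.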
(In general: In a reporter assay the amount or activity of a reporter protein is the signal.)

Assay [2] has as its target T2, AHR (Mus musculus, UniProt P30561).
T2 sequence (P30561 1-848 P471L/N533S/M589L): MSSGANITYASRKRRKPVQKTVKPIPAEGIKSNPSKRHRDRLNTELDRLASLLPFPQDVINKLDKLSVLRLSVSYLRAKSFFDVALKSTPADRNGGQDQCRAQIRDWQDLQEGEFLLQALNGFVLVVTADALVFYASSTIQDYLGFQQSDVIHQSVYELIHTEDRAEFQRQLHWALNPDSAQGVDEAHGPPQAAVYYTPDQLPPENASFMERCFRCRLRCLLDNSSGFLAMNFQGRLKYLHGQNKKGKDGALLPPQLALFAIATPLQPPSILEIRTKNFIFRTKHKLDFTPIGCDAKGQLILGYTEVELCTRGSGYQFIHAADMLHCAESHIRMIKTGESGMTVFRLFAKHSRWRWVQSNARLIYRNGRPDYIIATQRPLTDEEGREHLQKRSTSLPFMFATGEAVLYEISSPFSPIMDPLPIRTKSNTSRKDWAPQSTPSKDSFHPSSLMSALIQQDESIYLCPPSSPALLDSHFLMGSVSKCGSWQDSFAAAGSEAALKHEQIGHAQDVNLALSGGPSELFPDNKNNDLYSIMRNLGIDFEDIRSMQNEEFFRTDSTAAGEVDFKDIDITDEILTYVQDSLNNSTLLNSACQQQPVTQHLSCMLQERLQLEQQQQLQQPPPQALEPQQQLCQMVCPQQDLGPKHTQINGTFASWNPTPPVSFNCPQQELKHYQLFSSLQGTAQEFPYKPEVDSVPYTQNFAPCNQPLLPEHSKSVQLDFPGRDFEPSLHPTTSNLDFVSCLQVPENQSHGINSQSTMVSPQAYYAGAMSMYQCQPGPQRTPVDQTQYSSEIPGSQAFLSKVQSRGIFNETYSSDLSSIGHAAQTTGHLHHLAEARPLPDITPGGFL
In words: In vitro assay 3: antagonism in mouse cell line (AHR transactivation, firefly luciferase reporter, kynurenic acid prestimulated). In kind it is cell-based. In short, it runs like this: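 Mouse cells stably carrying a DRE-driven AHR-inducible firefly luciferase reporter were prestimulated with the endogenous agonist kynurenic acid before compound addition. Luciferase read by SteadyGlo; cells without kynurenic acid served as full-inhibition control, with normalization to positive and negative controls. Repeat tests reported as mean or median.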

Setting [3] is: Hepa 1c1c7 cells, 200 μM kynurenic acid, 20 hours, firefly luciferase reporter, read-out: AHR Antagonism Mouse IC50.
The mark [4] stands for this setting: mouse Hepa 1c1c7 cells, 200 μM kynurenic acid, 20 hours, read-out: AHR Antagonism Mouse IC50.

Where two headings read alike, the source gives them in different places.

The text below walks through data of patent US20230113037A1 (Bayer Aktiengesellschaft, priority 2019, published 2023).

By IC50 is commonly meant the midpoint of a concentration-inhibition curve.

In the case of `CCn1cc(-c2nc3c4cccc(Cl)c4nc(N[C@@H]4CNCCNC4=O)n3n2)cn1` [Example 957, (6R)-6-{[7-chloro-2-(1-ethyl-1H-pyrazol-4-yl)[1,2,4]triazolo[1,5-c]quinazolin-5-yl]amino}-1,4-diazepan-5-one], the results for the IC50 in assay [1] (firefly luciferase reporter) and in assay [2] (setting [3]) were 1.22e-08 M and 16.8 nM, respectively.
For `Cc1c(-c2nc3c4cccc(C(F)(F)F)c4nc(N[C@@H]4CCCCNC4=O)n3n2)cnn1C` [Example 734, (3R)-3-{[2-(1,5-dimethyl-1H-pyrazol-4-yl)-7-(trifluoromethyl)[1,2,4]triazolo[1,5-c]quinazolin-5-yl]amino}azepan-2-one], the IC50 was found to be 3.94e-09 M in assay [1] and 8.92 nM in assay [2] (setting [4]).
Take `COc1ccc(-c2nc3c4cccc(S(C)(=N)=O)c4nc(N[C@@H]4CCCCNC4=O)n3n2)cc1` (single isomer, unassigned) [Example 854]: the figures for the IC50 in assay [1] (firefly luciferase reporter) and in assay [2] (setting [3]) were 7.05e-09 M and 147 nM, respectively.
In the case of `COc1cccc2c1nc(N[C@@H]1CCCCNC1=O)n1nc(-c3cn(C)nn3)nc21` [Example 756, (3R)-3-{[7-methoxy-2-(1-methyl-1H-1,2,3-triazol-4-yl)[1,2,4]triazolo[1,5-c]quinazolin-5-yl]amino}azepan-2-one], the IC50 in assay [1] is 4.49e-06 M; in assay [2] (setting [4]), 11700 nM.
Regarding `COc1cccc(-c2nc3c4c(F)cccc4nc(N[C@@H]4CCCCNC4=O)n3n2)c1` [Example 185], the IC50 in assay [1] stood at 1.05e-08 M; in assay [2] (setting [4]), 9.84 nM.
Consider `COc1ccc(-c2nc3c4c(C5COC5)cccc4nc(N[C@@H]4CCCCNC4=O)n3n2)cc1` [Example 396, (3R)-3-{[2-(4-methoxyphenyl)-10-(oxetan-3-yl)[1,2,4]triazolo[1,5-c]quinazolin-5-yl]amino}azepan-2-one], for which the IC50 was found to be 1.12e-08 M in assay [1] and 21.6 nM in assay [2] (setting [4]).
For `COc1ccc(-c2nc3c4ccccc4nc(N[C@H](C)C(=O)N4CCOCC4)n3n2)cc1` [Example 778, (2R)-2-{[2-(4-methoxyphenyl)[1,2,4]triazolo[1,5-c]quinazolin-5-yl]amino}-1-(morpholin-4-yl)propan-1-one] the same measures were 2.09e-09 M and 4.32 nM.
On to `COc1ccc(-c2nc3c4cccc(Br)c4nc(N[C@@H](C(=O)O)C(C)C)n3n2)cc1` [Example 872, N-[7-bromo-2-(4-methoxyphenyl)[1,2,4]triazolo[1,5-c]quinazolin-5-yl]-D-valine], for which the figures for the IC50 in assay [1] (firefly luciferase reporter) and in assay [2] (setting [3]) were 6.57e-09 M and 15.8 nM, respectively.
As for `COCc1cccc2c1nc(N[C@@H]1CCCCNC1=O)n1nc(-c3cnn(C)c3)nc21` [Example 1004, (3R)-3-{[7-(methoxymethyl)-2-(1-methyl-1H-pyrazol-4-yl)[1,2,4]triazolo[1,5-c]quinazolin-5-yl]amino}azepan-2-one], the IC50 in assay [1] (firefly luciferase reporter) was found to be 1.9e-08 M; in assay [2] (setting [3]), 266 nM.
With `COc1ccc(-c2nc3c4cccc(C5COC5)c4nc(N[C@@H]4CCCCNC4=O)n3n2)cc1` [Example 1002, (3R)-3-{[2-(4-methoxyphenyl)-7-(oxetan-3-yl)[1,2,4]triazolo[1,5-c]quinazolin-5-yl]amino}azepan-2-one], the IC50 in assay [1] (firefly luciferase reporter) stood at 1.26e-09 M; in assay [2] (setting [3]) it was 42 nM.
`Cn1cc(-c2nc3c4ccccc4nc(N[C@@H]4CCCCNC4=O)n3n2)nn1` [Example 435]: the figures for the IC50 in assay [1] and in assay [2] (setting [4]) were 1.3e-07 M and 164 nM, respectively.
For `N#Cc1cccc(-c2nc3c4ccccc4nc(NC4CCCCCNC4=O)n3n2)c1` (centres unmarked) [Example 443, 3-(5-{[2-oxoazocan-3-yl]amino}[1,2,4]triazolo[1,5-c]quinazolin-2-yl)benzonitrile] the same measures were 1.02e-08 M and 0.672 nM.
With `COc1ccc(-c2nc3c4c(Br)cccc4nc(N[C@@H]4CCCCNC4=O)n3n2)cc1` [Example 164], the IC50 in assay [1] was 2.44e-09 M; in assay [2] (setting [4]) it was 4.54 nM.
On the same counts, the results for `CCCNC(=O)[C@@H](C)Nc1nc2c(Br)cccc2c2nc(-c3ccc(Cl)cc3OC(F)F)nn12` [Example 692, N^2-{7-bromo-2-[4-chloro-2-(difluoromethoxy)phenyl][1,2,4]triazolo[1,5-c]quinazolin-5-yl}-N-propyl-D-alaninamide] are 6.79e-10 M and 0.308 nM.
On the same counts, the results for `Nc1cccc(-c2nc3c4ccccc4nc(N[C@@H]4CCCCNC4=O)n3n2)c1` [Example 621, (3R)-3-{[2-(3-aminophenyl)[1,2,4]triazolo[1,5-c]quinazolin-5-yl]amino}azepan-2-one] are 1.02e-09 M and 0.964 nM.
Turning to `Cn1cc(-c2nc3c4cccc(C#N)c4nc(N[C@@H]4CCCCNC4=O)n3n2)cn1` [Example 403, 2-(1-Methyl-1H-pyrazol-4-yl)-5-{[(3R)-2-oxoazepan-3-yl]amino}[1,2,4]triazolo[1,5-c]quinazoline-7-carbonitrile], the IC50 is 3.03e-08 M in assay [1] and 95.1 nM in assay [2] (setting [4]).
On the same counts, the results for `O=C1NCCCC[C@H]1Nc1nc2ccccc2c2nc(-c3cccnc3C(F)(F)F)nn12` [Example 488, (3R)-3-({2-[2-(trifluoromethyl)pyridin-3-yl][1,2,4]triazolo[1,5-c]quinazolin-5-yl}amino)azepan-2-one] are 6.4e-08 M and 12.3 nM.
Consider `Cn1cc(-c2nc3c4cccc(Br)c4nc(N[C@H]4CNCCNC4=O)n3n2)cn1` [Example 983, (6S)-6-{[7-bromo-2-(1-methyl-1H-pyrazol-4-yl)[1,2,4]triazolo[1,5-c]quinazolin-5-yl]amino}-1,4-diazepan-5-one], for which the IC50 in assay [1] (firefly luciferase reporter) came to 8.18e-08 M; in assay [2] (setting [3]), 189 nM.
`NC(=O)[C@@H](CO)Nc1nc2ccccc2c2nc(-c3ccccc3)nn12` [Example 2, N^2-(2-phenyl[1,2,4]triazolo[1,5-c]quinazolin-5-yl)-D-serinamide]: the concentration for half-maximal inhibition (IC50) was 2.4e-08 M in assay [1] and 68.6 nM in assay [2] (setting [4]).
Turning to `CC(C)n1cc(-c2nc3c4cccc(F)c4nc(N[C@@H]4CNCCNC4=O)n3n2)cn1` [Example 971, (6R)-6-({7-fluoro-2-[1-(propan-2-yl)-1H-pyrazol-4-yl][1,2,4]triazolo[1,5-c]quinazolin-5-yl}amino)-1,4-diazepan-5-one], the IC50 was 7.72e-07 M in assay [1] (firefly luciferase reporter) and 286 nM in assay [2] (setting [3]).
With `COc1ccc(-c2nc3c4cccc(N5CCOCC5)c4nc(N[C@@H]4CCCCNC4=O)n3n2)cc1` [Example 654, (3R)-3-{[2-(4-methoxyphenyl)-7-(morpholin-4-yl)[1,2,4]triazolo[1,5-c]quinazolin-5-yl]amino}azepan-2-one], the IC50 in assay [1] was 1.03e-07 M; in assay [2] (setting [4]), 221 nM.
Regarding `CCCC[C@H](Nc1nc2ccccc2c2nc(-c3cccc(OC(F)(F)F)c3)nn12)C(N)=O` (racemic) [Example 322, N^2-{2-[3-(trifluoromethoxy)phenyl][1,2,4]triazolo[1,5-c]quinazolin-5-yl}-norleucinamide], the IC50 was 6.42e-08 M in assay [1] and 35.7 nM in assay [2] (read-out: AHR Antagonism Mouse IC50, mouse Hepa 1c1c7 cells, 200 μM kynurenic acid, 20 hours).
